Test results taken from patent US4162311A, “Medicinal preparation with pronounced vegetotropic and antiepileptic effect for treating psychoneurotic disorders” (priority 1977, dated 1979).
“Also recorded” adds a separate entry of the source. Where two headings read alike, the source gives them in different places.

Legend:
[1] = chemical stability / shelf life; format: physicochemical
Description: Hydrazide of diphenylphosphenylacetic acid is a bitter-tasting odorless white powder.

solubility = format: physicochemical
Description: Hydrazide of diphenylphosphinylacetic acid is a bitter-tasting odorless white crystalline powder. It is soluble in water (1:100), alcohol and chloroform, but insoluble in benzene and ether.

[2] = sedative effect / depression in animals; format: in vivo, mice and rats
[3] = test system: orientating reaction in mice; assay: orientating reaction in mice; format: in vivo; settings: intra-abdominal, 1/8 DMT, one hour before
[4] = test system: hexenal, barbamil, urethane and chloral hydrate effect; assay: interaction with narcotics and soporifics (hexenal, barbamil, urethane, chloral hydrate); format: in vivo
Description: (§1) A dose as low as 1/5 DMT potentiates barbamil.

monoaminooxidaze = monoaminooxidaze suppression, inferred from hexenal sleep; format: in vivo; settings: concluded from equal hexenal sleep at 2 and 22 hours
Description: as §1

body temperature of mice = format: in vivo; settings: for decrease of body temperature (hypothermal effect): 200 mg/kg (DMT)
[5] = test system: hypothermal effect of aminazine (chlorpromazine); assay: hypothermal effect of aminazine (chlorpromazine); settings: in vivo
[6] = test system: separated intestines; blood pressure and respiration of rabbits; assay: peripheral adrenolytic effect: separated intestines, blood pressure and respiration of rabbits
[7] = test system: action of serotonin on a separated rat's intestine; assay: separated intestine with serotonin
[8] = test system: serotonin content in brain tissue; assay: serotonin content in brain tissue of mice; format: in vivo
effects of nibuphin = assay: synergism with nibuphin; settings: in vivo
[9] = test system: convulsant effects of corasole and caffeine; assay: sensitivity of mice to the convulsant effects of corasole and caffeine; format: in vivo
cumulative effect = settings: in vivo
[10] = test system: apomorphine toxicity and stereotypy; assay: apomorphine toxicity and stereotypy; format: in vivo, mice
[11] = test system: nicotine-induced convulsions; assay: nicotine-induced convulsions in mice; format: in vivo
arecoline tremor = assay: M-cholinolytic effect: arecoline tremor in mice; format: in vivo
[12] = test system: convulsions caused by corasole, strychnine, and electroconvulsion therapy; assay: convulsions caused by corasole, strychnine and electroconvulsion therapy; format: in vivo, animals
Description: (§2) As regards the effects of the proposed preparation on convulsions induced in animals in the course of an experiment, the mechanism of action appears to be more complicated.

[13] = test system: epileptic seizures caused by microinjections of penicillin; assay: epileptic seizures caused by microinjections of penicillin into the hippocamp; format: in vivo; settings: rabbits, 20 to 100 mg/kg
Description: as §2

[14] = test system: sympathoadrenal and hypothalamohypophysioadrenal systems; assay: clinical studies of vegetovascular dystonia; format: in vivo, patients; settings: 32 cases
local irritant effect = settings: in vivo
[15] = acute toxicity / tolerance dose; settings: in vivo
[16] = behavior of rabbits after intramuscular administration; format: in vivo; settings: 50 mg/kg
[17] = prolonged treatment, anatomical and histological examination, mice; format: in vivo; settings: intraperitoneal, 35 mg/kg (1/9 LD50)
[18] = prolonged treatment, anatomical and histological examination, rabbits; format: in vivo; settings: intramuscular, 50 mg/kg
[19] = clinical: hypothalamic syndrome with sympathoadrenal crises; format: in vivo, patients; settings: of 20 cases
Description: In 12 cases the number and intensity of fits were reduced and general improvement was observed. Earlier, all the patients had been repeatedly admitted to neurological hospitals where they were subjected to different forms of treatment, including drug therapy with the use of tranquilizers of the benzodiazepin derivatives. The effect of such treatment was quite moderate and unstable and was only manifest in a reduced number of fits and a slight improvement of the general state of the patients.

[20] = clinical: neurasthenia with vegetovascular dystonia; format: in vivo, patients
[21] = clinical: acute alcoholic abstinence; format: in vivo, patients; settings: of 30 alcoholics; first two days; placebo 10 of 30
Description: On the whole, the proposed preparation reduced the period of abstinence 2- to 3-fold.

[22] = clinical: temporal lobe epilepsy; format: in vivo, patients
Description: Good results were also obtained in treating 18 cases of temporal lobe epilepsy with predominant psychosensory, psychomotor, vegetative and emotional fits. For a number of years, all the patients had been given anticonvulsants and tranquilizers which were derivatives of benzodiazepin. In most of these cases conventional treatment had been ineffective. The proposed preparation brought about a dramatic change: in 14 cases the attacks either ceased completely or their frequency was reduced by more than half.

[23] = clinical safety on prolonged use; format: in vivo, patients
Description: The proposed preparation can be used for treating both young and old patients, as well as those having concomitant diseases of internal organs.

cholinesterase = assay: anticholinesterase properties
phenamine stereotypy = phenamine stereotypy in rats
lethal dose of cocaine = lethal dose of cocaine in mice
[24] = clinical investigation in neurotic and psychic disorders
[25] = cited from earlier work; for vegetotropic and antiepileptic effect: among tranquilizers; for relaxing effect and sluggishness: taken over prolonged periods of time; for effect of other treatments: aforesaid diseases
[26] = test system: convulsant effects of corasole and caffeine; settings: mice; comparison drug; cited from earlier work

NNC(=O)CP(=O)(c1ccccc1)c1ccccc1 [Hydrazide of diphenylphosphinylacetic acid]
shelf life [1]: longer than two years | chemical stability ([1]; powder and solution): chemically stable both in the form of powder and solution | solubility in alcohol (solubility; alcohol): soluble | solubility in benzene (solubility; benzene): insoluble | solubility in chloroform (solubility; chloroform): soluble | solubility in ether (solubility; ether): insoluble | sedative effect ([2]; animals): pronounced sedative effect | lowest dose causing depression ([2]; mice and rats): 1/3 | depression (without "on-side" position) ([2]; mice and rats, tolerance doses, beginning with 1/3 DMT): causes depression in mice and rats | effect on orientating reaction [3]: affects the orientating reaction in mice | lowest dose potentiating barbamil ([4]; barbamil): 1/5 | duration of hexenal sleep ([4]; hexenal given 2 and 22 hours after the preparation): induces sleep of equal duration | potentiation of narcotics and soporifics ([4]; in vivo): potentiates hexenal, barbamil, urethane and chloral hydrate; also recorded: exhibits the properties of a true Brodie potentiator | suppression of monoaminooxidaze activity (monoaminooxidaze): does not suppress the monoaminooxidaze activity | effect on body temperature (body temperature of mice; 30 mg/kg (1/7 DMT)): no effect | effect on body temperature (body temperature of mice; 60 mg/kg (printed 166 DMT)): no effect | decrease of body temperature (hypothermal effect) (body temperature of mice; 1.5 hours): 4.3 °C | decrease of body temperature (hypothermal effect) (body temperature of mice; 3 hours): 3.4 °C | effect on hypothermal effect of aminazine (chlorpromazine) [5]: intensifies the hypothermal effect | peripheral adrenolytic effect [6]: no peripheral adrenolytic effect | antagonism of serotonin on separated intestine [7]: prevents the action of serotonin | serotonin content in brain tissue [8]: decreases the serotonin content | synergism with nibuphin (effects of nibuphin): synergism | sensitivity to convulsant effects of corasole and caffeine [9]: increases the sensitivity of mice | cumulative effect (cumulative effect): no cumulative effect | effect on toxicity of apomorphine ([10]; mice): does not intensify the toxicity of apomorphine in mice | effect on duration of apomorphine stereotypy ([10]; mouse, in vivo): nor does it affect the duration of apomorphine stereotypy | nicotine-induced convulsions [11]: relieve nicotine-induced convulsions in mice | increase of survival rate ([11]; nicotine-induced convulsions): 50% | effect on arecoline tremor (arecoline tremor; mice): does not mitigate arecoline tremor in mice | effect on duration of arecoline tremor (arecoline tremor; mice): nor does it affect its duration | M-cholinolytic effect (arecoline tremor; mouse, in vivo): no M-cholinolytic effect | prevention of convulsions [12]: does not prevent convulsions | epileptic seizures [13]: prevents or reduces the frequency of epileptic seizures | excretion of adrenalin and 17-oxycorticosteroids with urine [14]: pronounced normalization | extraction of norepinephrine [14]: tendenecy towards a normalized extraction | functions of sympathoadrenal and hypothalamohypophysioadrenal systems ([14]; course of treatment): normalized the functions | local irritant effect (local irritant effect): no local irritant effect | toxicity [15]: limited toxicity | LD50 ([15]; iv, injected intravenously, species not given): 293 mg/kg | MTD ([15]; mouse, mice, read-out: DMT (tolerance dose)): 200 mg/kg | effect on animals' behavior [16]: in no way affected the animals's behavior | changes in blood and internal organs [17]: no changes in the blood and internal organs | changes in blood and internal organs [18]: no changes in the blood and internal organs | cases with marked improvement (crises ceased, working capacity restored) [19]: 5 cases | cases with number and intensity of fits reduced and general improvement [19]: 12 cases | vegetovascular crises ([20]; 8 of 11 patients): reduced number or even complete eliminationn of vegetovascular crises | patients with significant improvement ([20]; of 11 patients, end of the first week): 8 patients | patients with considerable improvement [21]: 20 | dysphorias and patients' behavior ([22]; 18 cases): dysphorias were better endured, and the patients' behavior became more controlled | electroencephalography ([22]; 18 cases): reduction in the paroxysmal activity and normalization of recordings | cases in which attacks ceased completely or frequency reduced by more than half ([22]; of 18 cases): 14 cases | electrocardiography ([23]; 8 to 12 weeks): nor are there any changes that could be detected by electrocardiography | morphological and biochemical composition of the blood ([23]; 8 to 12 weeks): does not change the morphological and biochemical composition of the blood | habit formation ([23]; clinical): not habit-forming | toxicity ([23]; clinical): low toxicity | contraindication ([23]; human, in vivo): gastric ulcer with a tendency to frequency exacerbations | impediment to drivers ([23]; human, in vivo): no impediment to drivers | side effects or complications ([23]; prolonged administration): no side effects or complications | anticholinesterase properties (cholinesterase): do not possess anticholinesterase properties | effect on analgetic effect of analginum (analgetic effect in mice; 1/2 DMT): intensified the analgetic effect of analginum | effect on analgetic effect of morphine (analgetic effect in mice; 1/4 DMT): intensified the analgetic effect of morphine | lowest dose with analgetic effect (analgetic effect in mice; mice): 1/4 | duration of analgetic effect (analgetic effect in mice; mice, 1/2 DMT): three hours | duration of analgesia (analgetic effect in mice; mice, DMT): more than five hours | advent of phenamine stereotypy (phenamine stereotypy; great doses): prevents the advent | duration of phenamine stereotypy (phenamine stereotypy; rats, 10 mg/kg to 400 mg/kg): statistically reliable reduction | prevention of death of mice (lethal dose of cocaine): 60% | tranquilizer strength ([24]; human, in vivo): relatively weak tranquilizer | night sleep effect ([24]; neuroses): light night sleep compeller | onset of sleep ([24]; neuroses): accelerates the onset of sleep | efficacy versus known drugs ([24]; neurotic and psychic disorders with vegetovascular disturbances and epileptic fits without convulsions): superior in this respect to the known drugs | side effects or complications ([24]; patients): no side effects or complications | tolerance ([24]; patients): good tolerance | relaxation effect ([24]; patients, versus benzodiazepin derivatives): absence to a marked relaxation effect

CNC1=Nc2ccc(Cl)cc2C(c2ccccc2)=[N+]([O-])C1 [chlorodiazepoxide]
vegetotropic and antiepileptic effect [25]: most pronounced vegetotropic and antiepileptic effect | relaxing effect and sluggishness [25]: manifest a relaxing effect and produce sluggishness

CN1C(=O)CN=C(c2ccccc2)c2cc(Cl)ccc21 [diazepam]
vegetotropic and antiepileptic effect [25]: most pronounced vegetotropic and antiepileptic effect | relaxing effect and sluggishness [25]: manifest a relaxing effect and produce sluggishness

[Mg+2].[O-2] [magnesia]
effect of other treatments [25]: only a limited and short-lived effect

CCN(CC)CCOC(=O)c1ccc(N)cc1 [novocain]
effect of other treatments [25]: only a limited and short-lived effect

COC(=O)[C@H]1[C@H]2C[C@@H]3c4[nH]c5cc(OC)ccc5c4CCN3C[C@H]2C[C@@H](OC(=O)c2cc(OC)c(OC)c(OC)c2)[C@@H]1OC [reserpine]
sensitivity to convulsant effects of corasole and caffeine [26]: increases the sensitivity of mice
